Reference: patent publication US11584763B2, “Chromenopyridine derivatives as phosphatidylinositol phosphate kinase inhibitors” (HIBERCELL, INC., priority 2017, dated 2023)
pIC50: −log10 of the molar value.

Legend:
Format in all cases: biochemical
PIP4K2B = biological target: T1, PIP4K2B (Homo sapiens, UniProt P78356); assay: Trans-FI P kinase assay PIP4K2B (PIP4KtypeIIB inhibition assay); details: compounds listed under IC50 bin headings; 100 uM GTP; read-out: Trans-FI P kinase assays: PIP4K2B IC50
T1 construct: made in house; host or cells: E. coli
T1 sequence (P78356 1-416): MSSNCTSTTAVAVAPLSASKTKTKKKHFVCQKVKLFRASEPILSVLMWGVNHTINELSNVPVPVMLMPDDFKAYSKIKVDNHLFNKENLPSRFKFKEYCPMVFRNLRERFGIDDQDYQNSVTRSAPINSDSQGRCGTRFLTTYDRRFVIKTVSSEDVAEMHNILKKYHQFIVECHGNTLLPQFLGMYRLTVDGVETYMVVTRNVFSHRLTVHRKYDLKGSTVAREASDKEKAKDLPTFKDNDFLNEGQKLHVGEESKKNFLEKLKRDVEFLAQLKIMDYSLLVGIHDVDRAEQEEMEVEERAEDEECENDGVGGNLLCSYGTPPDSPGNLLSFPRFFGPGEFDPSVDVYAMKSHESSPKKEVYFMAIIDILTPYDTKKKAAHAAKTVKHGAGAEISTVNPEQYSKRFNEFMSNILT
Summary of the method: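 GST-tagged human PIP4K2B (5 nM, E. coli-expressed) preincubated 1 h at 27 C with compound (top 4.8 uM, 5% DMSO), then reacted 2 h with 100 uM GTP and 80 uM PI5P/DOPE vesicles in HEPES pH 7.3, MgCl2, Triton X-100. GDP detected by Transcreener FI fluorescence via calibration curve; IC50 from % activity vs log[inhibitor].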

PIP4K 2A [1] = biological target: T2, PIP4K 2A (Homo sapiens, UniProt P48426); assay: ADP-glo kinase assay PIP4K 2A; set-up: 4 nM PIP4K2A (full length protein, SignalChem); purchased SignalChem; details: compounds listed under IC50 bin headings
T2 sequence (P48426 1-406): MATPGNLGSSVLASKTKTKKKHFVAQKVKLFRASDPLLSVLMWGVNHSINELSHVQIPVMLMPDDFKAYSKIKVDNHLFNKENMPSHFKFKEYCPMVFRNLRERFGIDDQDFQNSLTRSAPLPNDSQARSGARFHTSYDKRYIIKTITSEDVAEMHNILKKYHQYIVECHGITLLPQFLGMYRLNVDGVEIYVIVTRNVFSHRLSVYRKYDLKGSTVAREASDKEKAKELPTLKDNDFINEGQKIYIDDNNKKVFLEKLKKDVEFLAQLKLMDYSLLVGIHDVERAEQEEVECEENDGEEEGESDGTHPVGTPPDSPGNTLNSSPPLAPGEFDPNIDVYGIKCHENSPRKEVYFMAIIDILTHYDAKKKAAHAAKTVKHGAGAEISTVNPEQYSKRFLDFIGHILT
Summary of the method: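 Full-length PIP4K2A was pre-incubated 15 min at RT with compound in 20 mM MOPS pH 7.2, 25 mM MgCl2, 0.005% Tween 20. The enzyme mix held 4 nM kinase and 100 μM PI(5)P diC8, and ATP was added from a 60 μM solution. After 1 h at RT, ADP-Glo luminescence gave % inhibition versus DMSO, fitted to IC50 over 10 threefold dilutions.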

PIP4K 2A [2] = biological target: T2, PIP4K 2A; assay: Kinase Assay PIP4K2 A (PIP4KtypeIIA inhibition assay); set-up: made in house; host or cells: E. coli; details: compounds listed under IC50 bin headings
Summary of the method: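 GST-tagged enzyme from E. coli at 0.5 nM final was preincubated with compound for 1 h at 27 C, then reacted with 10 uM ATP, 80 uM PI5P and DOPE carrier in 50 mM HEPES pH 7.3, 5% DMSO. After 1 h, ADP was measured by ADP-Glo luminescence against a calibration curve. IC50 was fitted from % residual activity.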

SMILES: CC1Oc2cc(N3CCCC3=O)ccc2-c2cnc(Nc3cncc(N(C4CC4)S(C)(=O)=O)c3)cc21 (stereo not drawn) [Example 51, N-cyclopropyl-N-(5-((5-methyl-8-(2-oxopyrrolidin-1-yl)-5H-chromeno[4,3-c]pyridin-3-yl)amino)pyridin-3-yl)methanesulfonamide]
- pIC50 (PIP4K2B): 7.00 to 8.00
- pIC50 (PIP4K 2A [1]): 8.00 to 9.00
- pIC50 (PIP4K 2A [2]): ≥ 9.00

SMILES: Cc1cncc(Nc2cc3c(cn2)-c2ccc(N4CCCC4=O)cc2OC3C)c1 (stereo not drawn) [Example 97, 1-(5-methyl-3-((5-methylpyridin-3-yl)amino)-5H-chromeno[4,3-c]pyridin-8-yl)pyrrolidin-2-one]
- pIC50 (PIP4K2B): 6.00 to 7.00
- pIC50 (PIP4K 2A [1]): 8.00 to 9.00
- pIC50 (PIP4K 2A [2]): ≥ 9.00

SMILES: CC1Oc2cc(N3CCCC3=O)ccc2-c2cnc(Nc3cnc4c(c3)N(S(=O)(=O)C(C)C)CCO4)cc21 (stereo not drawn) [Example 85, 1-(3-((1-(isopropylsulfonyl)-2,3-dihydro-1H-pyrido[2,3-b][1,4]oxazin-7-yl)amino)-5-methyl-5H-chromeno[4,3-c]pyridin-8-yl)pyrrolidin-2-one]
- pIC50 (PIP4K2B): 7.00 to 8.00
- pIC50 (PIP4K 2A [1]): 8.00 to 9.00
- pIC50 (PIP4K 2A [2]): ≥ 9.00

SMILES: CC1Oc2cc(C(=O)N(C)C)ccc2-c2cnc(Nc3cnc4c(c3)N(S(C)(=O)=O)CCO4)cc21 (stereo not drawn) [Example 71, N,N,5-trimethyl-3-((1-(methylsulfonyl)-2,3-dihydro-1H-pyrido[2,3-b][1,4]oxazin-7-yl)amino)-5H-chromeno[4,3-c]pyridine-8-carboxamide]
- pIC50 (PIP4K2B): 8.00 to 9.00
- pIC50 (PIP4K 2A [1]): ≥ 9.00
- pIC50 (PIP4K 2A [2]): ≥ 9.00

SMILES: CC(O)C(=O)N1CCOc2ncc(Nc3cc4c(cn3)-c3ccc(N5CCCC5=O)cc3OC4C)cc21 (stereo not drawn) [Example 60, 1-(3-((1-(2-hydroxypropanoyl)-2,3-dihydro-1H-pyrido[2,3-b][1,4]oxazin-7-yl)amino)-5-methyl-5H-chromeno[4,3-c]pyridin-8-yl)pyrrolidin-2-one]
- pIC50 (PIP4K2B): 8.00 to 9.00
- pIC50 (PIP4K 2A [1]): ≥ 9.00
- pIC50 (PIP4K 2A [2]): ≥ 9.00

SMILES: CC1Oc2cc(N3CCCC3=O)c(F)cc2-c2cnc(Nc3cccnc3)cc21 (stereo not drawn) [Example 46, 1-(9-fluoro-5-methyl-3-(pyridin-3-ylamino)-5H-chromeno[4,3-c]pyridin-8-yl)pyrrolidin-2-one]
- pIC50 (PIP4K2B): 6.00 to 7.00
- pIC50 (PIP4K 2A [1]): 7.00 to 8.00
- pIC50 (PIP4K 2A [2]): 8.00 to 9.00

SMILES: CC1Oc2cc(C(=O)N(C)C)ccc2-c2cnc(Nc3cnc4c(c3)N(S(=O)(=O)C3CC3)CCO4)cc21 (stereo not drawn) [Example 72, 3-((1-(cyclopropylsulfonyl)-2,3-dihydro-1H-pyrido[2,3-b][1,4]oxazin-7-yl)amino)-N,N,5-trimethyl-5H-chromeno[4,3-c]pyridine-8-carboxamide]
- pIC50 (PIP4K2B): 8.00 to 9.00
- pIC50 (PIP4K 2A [1]): 8.00 to 9.00
- pIC50 (PIP4K 2A [2]): ≥ 9.00

SMILES: CC1Oc2cc(N3CCCC3=O)ccc2-c2cnc(Nc3cnc4ccn(S(C)(=O)=O)c4c3)cc21 (stereo not drawn) [Example 57, 1-(5-methyl-3-((1-(methylsulfonyl)-1H-pyrrolo[3,2-b]pyridin-6-yl)amino)-5H-chromeno[4,3-c]pyridin-8-yl)pyrrolidin-2-one]
- pIC50 (PIP4K2B): 7.00 to 8.00
- pIC50 (PIP4K 2A [1]): 8.00 to 9.00
- pIC50 (PIP4K 2A [2]): ≥ 9.00

SMILES: C[C@H]1Oc2cc(N3CCCC3=O)ccc2-c2cnc(Nc3cnc4c(c3)N3C(=O)CC[C@H]3CO4)cc21 [Example 192, (S)-2-(((R)-5-methyl-8-(2-oxopyrrolidin-1-yl)-5H-chromeno[4,3-c]pyridin-3-yl)amino)-6,6a,7,8-tetrahydro-9H-pyrido[2,3-b]pyrrolo[1,2-d][1,4]oxazin-9-one]
- pIC50 (PIP4K2B): 7.00 to 8.00
- pIC50 (PIP4K 2A [1]): ≥ 9.00
- pIC50 (PIP4K 2A [2]): ≥ 9.00

SMILES: CC1Oc2cc(C(=O)N(C)C)ccc2-c2cnc(Nc3cccnc3)cc21 (stereo not drawn) [Example 31, N,N,5-trimethyl-3-(pyridin-3-ylamino)-5H-chromeno[4,3-c]pyridine-8-carboxamide]
- pIC50 (PIP4K2B): 6.00 to 7.00
- pIC50 (PIP4K 2A [1]): 8.00 to 9.00
- pIC50 (PIP4K 2A [2]): 8.00 to 9.00

SMILES: CC1Oc2cc(N3CCCC3=O)ccc2-c2cnc(Nc3cncc(OC(F)F)c3)cc21 (stereo not drawn) [Example 41, 1-(3-((5-(difluoromethoxy)pyridin-3-yl)amino)-5-methyl-5H-chromeno[4,3-c]pyridin-8-yl)pyrrolidin-2-one]
- pIC50 (PIP4K2B): < 6.00
- pIC50 (PIP4K 2A [1]): 7.00 to 8.00
- pIC50 (PIP4K 2A [2]): 8.00 to 9.00

SMILES: CC1Oc2cc(N3CCCC3=O)ccc2-c2cnc(Nc3cnc4nccnc4c3)cc21 (stereo not drawn) [Example 63, 1-(5-methyl-3-(pyrido[2,3-b]pyrazin-7-ylamino)-5H-chromeno[4,3-c]pyridin-8-yl)pyrrolidin-2-one]
- pIC50 (PIP4K2B): 6.00 to 7.00
- pIC50 (PIP4K 2A [1]): 8.00 to 9.00
- pIC50 (PIP4K 2A [2]): 8.00 to 9.00

SMILES: CC1Oc2cc(C(=O)N(C)C)ccc2-c2cnc(Nc3cncc(N4CCCC4=O)c3)cc21 (stereo not drawn) [Example 32, N,N,5-trimethyl-3-((5-(2-oxopyrrolidin-1-yl)pyridin-3-yl)amino)-5H-chromeno[4,3-c]pyridine-8-carboxamide]
- pIC50 (PIP4K2B): 7.00 to 8.00
- pIC50 (PIP4K 2A [1]): 8.00 to 9.00
- pIC50 (PIP4K 2A [2]): ≥ 9.00

SMILES: O=C1CCCN1c1ccc2c(c1)OC1(COC1)c1cc(Nc3cnc4c(c3)N3C(=O)CC[C@H]3CO4)ncc1-2 [Example 194, (S)-2-((8-(2-oxopyrrolidin-1-yl)spiro[chromeno[4,3-c]pyridine-5,3′-oxetan]-3-yl)amino)-6,6a,7,8-tetrahydro-9H-pyrido[2,3-b]pyrrolo[1,2-d][1,4]oxazin-9-one]
- pIC50 (PIP4K2B): 8.00 to 9.00
- pIC50 (PIP4K 2A [1]): ≥ 9.00
- pIC50 (PIP4K 2A [2]): 8.00 to 9.00

SMILES: COc1ncc(Nc2cc3c(cn2)-c2ccc(N4CCCC4=O)cc2OC3C)cc1NC(C)=O (stereo not drawn) [Example 87, N-(2-methoxy-5-((5-methyl-8-(2-oxopyrrolidin-1-yl)-5H-chromeno[4,3-c]pyridin-3-yl)amino)pyridin-3-yl)acetamide]
- pIC50 (PIP4K2B): 7.00 to 8.00
- pIC50 (PIP4K 2A [1]): 8.00 to 9.00
- pIC50 (PIP4K 2A [2]): 8.00 to 9.00

SMILES: CC1(C)Oc2cc(N3CCCC3=O)c(F)cc2-c2cnc(Nc3cnc4c(c3)OCCO4)cc21 [Example 167, 1-(3-((2,3-dihydro-[1,4]dioxino[2,3-b]pyridin-7-yl)amino)-9-fluoro-5,5-dimethyl-5H-chromeno[4,3-c]pyridin-8-yl)pyrrolidin-2-one]
- pIC50 (PIP4K2B): 7.00 to 8.00
- pIC50 (PIP4K 2A [1]): ≥ 9.00
- pIC50 (PIP4K 2A [2]): ≥ 9.00

SMILES: CC1Oc2cc(N3CCCC3=O)ccc2-c2cnc(Nc3cnc4cccnc4c3)cc21 (stereo not drawn) [Example 64, 1-(3-((1,5-naphthyridin-3-yl)amino)-5-methyl-5H-chromeno[4,3-c]pyridin-8-yl)pyrrolidin-2-one]
- pIC50 (PIP4K2B): 6.00 to 7.00
- pIC50 (PIP4K 2A [1]): 7.00 to 8.00
- pIC50 (PIP4K 2A [2]): 8.00 to 9.00

SMILES: CN(C)C(=O)c1ccc2c(c1)OC(C1CC1)c1cc(Nc3cncc(N4CCCC4=O)c3)ncc1-2 (stereo not drawn) [Example 35, 5-cyclopropyl-N,N-dimethyl-3-((5-(2-oxopyrrolidin-1-yl)pyridin-3-yl)amino)-5H-chromeno[4,3-c]pyridine-8-carboxamide]
- pIC50 (PIP4K2B): 8.00 to 9.00
- pIC50 (PIP4K 2A [1]): 8.00 to 9.00
- pIC50 (PIP4K 2A [2]): ≥ 9.00

SMILES: CC1Oc2cc(C(=O)N(C)C)ccc2-c2cnc(Nc3cnc4c(c3)N(C(=O)C(C)(C)C)CCO4)cc21 (stereo not drawn) [Example 67, N,N,5-trimethyl-3-((1-pivaloyl-2,3-dihydro-1H-pyrido[2,3-b][1,4]oxazin-7-yl)amino)-5H-chromeno[4,3-c]pyridine-8-carboxamide]
- pIC50 (PIP4K2B): 8.00 to 9.00
- pIC50 (PIP4K 2A [1]): ≥ 9.00
- pIC50 (PIP4K 2A [2]): ≥ 9.00

SMILES: CC1Oc2cc(C(=O)N(C)C)ccc2-c2cnc(Nc3cnc4c(c3)N(C(=O)C3CC3)CCO4)cc21 (stereo not drawn) [Example 68, 3-((1-(cyclopropanecarbonyl)-2,3-dihydro-1H-pyrido[2,3-b][1,4]oxazin-7-yl)amino)-N,N,5-trimethyl-5H-chromeno[4,3-c]pyridine-8-carboxamide]
- pIC50 (PIP4K2B): 8.00 to 9.00
- pIC50 (PIP4K 2A [1]): ≥ 9.00
- pIC50 (PIP4K 2A [2]): ≥ 9.00

SMILES: CC1Oc2cc(N3CCCC3=O)ccc2-c2cnc(Nc3cnc4c(c3)N(C(=O)C(C)(C)O)CCO4)cc21 (stereo not drawn) [Example 59, 1-(3-((1-(2-hydroxy-2-methylpropanoyl)-2,3-dihydro-1H-pyrido[2,3-b][1,4]oxazin-7-yl)amino)-5-methyl-5H-chromeno[4,3-c]pyridin-8-yl)pyrrolidin-2-one]
- pIC50 (PIP4K2B): 8.00 to 9.00
- pIC50 (PIP4K 2A [1]): ≥ 9.00
- pIC50 (PIP4K 2A [2]): ≥ 9.00
